Measurements published in patent US8455665B2, “3-phenoxymethylpyrrolidine compounds” (Theravance, Inc., priority 2009, dated 2013).

What was measured:
Set-up in all cases: expressed in transfected cells; host or cells: HEK-293
[1] = target: T1, SERT (Homo sapiens, UniProt P31645); assay: hSERT membrane radioligand binding assay (3H-citalopram); conditions: hSERT membranes (HEK-293), 1.0 nM 3H-citalopram; for Ki: read-out: SERT pKi (converted)
Description: (§1) Membrane radioligand binding assays were used to measure inhibition of labeled ligand (^3H-citalopram or ^3H-nisoxetine or ^3H-WIN35428) binding to membranes prepared from cells expressing the respective human recombinant transporter (hSERT or hNET or hDAT) in order to determine the pKi values of test compounds at the transporters.
(§2) Recombinant human embryonic kidney (HEK-293) derived cell lines stably transfected with hSERT or hNET, respectively, were grown in DMEM medium supplemented with 10% dialyzed FBS (for hSERT) or FBS (for hNET), 100 μg/ml penicillin, 100 μg/ml streptomycin, 2 mM L-glutamine and 250 μg/ml of the aminoglycoside antibiotic G418, in a 5% CO2 humidified incubator at 37° C. When cultures reached 80% confluence, the cells were washed thoroughly in PBS (without Ca^2+ and Mg^2+) and lifted with 5 mM EDTA in PBS. Cells were pelleted by centrifugation, resuspended in lysis buffer (10 mM Tris-HCl, pH7.5 containing 1 mM EDTA), homogenized, pelleted by centrifugation, then resuspended in 50 mM Tris-HCl, pH 7.5 and 10% sucrose at 4° C. Protein concentration of the membrane suspension was determined using a Bio-Rad Bradford Protein Assay kit. Membranes were snap frozen and stored at −80° C. Chinese hamster ovary membranes expressing hDAT (CHO-DAT) were purchased from PerkinElmer and stored at −80° C.
(§3) Binding assays were performed in a 96-well assay plate in a total volume of 200 μl assay buffer (50 mM Tris-HCl, 120 mM NaCl, 5 mM KCl, pH 7.4) with 0.5, 1, and 3 μg membrane protein, for SERT, NET and DAT, respectively.
(§4) Stock solutions (10 mM in DMSO) of test compound were prepared and serial dilutions made using Dilution Buffer (50 mM Tris-HCl, 120 mM NaCl, 5 mM KCl, pH 7.4, 0.1% BSA, 400 μM ascorbic acid). Non-specific radioligand binding was determined in the presence of 1 μM duloxetine, 1 μM desipramine or 10 μM GBR12909 (each in Dilution Buffer) for the hSERT, hNET or hDAT assays, respectively.
(§5) Following a 60 minute incubation at 22° C. (or a period sufficient to reach equilibrium), the membranes were harvested by rapid filtration over a 96-well UniFilter GF/B plate, pretreated with 0.3% polyethyleneimine, and washed 6 times with […] (50 mM Tris-HCl, 0.9% NaCl, pH 7.5 at 4° C.). Plates were dried overnight at room temperature, approximately […] of MicroScint™-20 (Perkin Elmer) added and bound radioactivity quantitated via liquid scintillation spectroscopy. Inhibition curves and saturation isotherms were analyzed using GraphPad Prism Software package (GraphPad Software, Inc., San Diego, Calif.). IC50 values were generated from concentration response curves using the Sigmoidal Dose Response (variable slope) algorithm in Prism GraphPad. Kd and Bmax values for the radioligand were generated from saturation isotherms using the Saturation Binding Global Fit algorithm in Prism GraphPad. pKi (negative decadic logarithm of Ki) values for test compounds were calculated from the best-fit IC50 values, and the Kd value of the radioligand, using the Cheng-Prusoff equation (Cheng & Prusoff (1973) Biochem. Pharmacol. 22(23):3099-3108): Ki=IC50/(1+[L]/Kd), where [L]=concentration radioligand.

[2] = target: T2, NET (Homo sapiens, UniProt P23975); assay: hNET membrane radioligand binding assay (3H-nisoxetine); conditions: hNET membranes (HEK-293), 1.0 nM 3H-nisoxetine; for Ki: read-out: NET pKi (converted)
T2 sequence (P23975 whole entry): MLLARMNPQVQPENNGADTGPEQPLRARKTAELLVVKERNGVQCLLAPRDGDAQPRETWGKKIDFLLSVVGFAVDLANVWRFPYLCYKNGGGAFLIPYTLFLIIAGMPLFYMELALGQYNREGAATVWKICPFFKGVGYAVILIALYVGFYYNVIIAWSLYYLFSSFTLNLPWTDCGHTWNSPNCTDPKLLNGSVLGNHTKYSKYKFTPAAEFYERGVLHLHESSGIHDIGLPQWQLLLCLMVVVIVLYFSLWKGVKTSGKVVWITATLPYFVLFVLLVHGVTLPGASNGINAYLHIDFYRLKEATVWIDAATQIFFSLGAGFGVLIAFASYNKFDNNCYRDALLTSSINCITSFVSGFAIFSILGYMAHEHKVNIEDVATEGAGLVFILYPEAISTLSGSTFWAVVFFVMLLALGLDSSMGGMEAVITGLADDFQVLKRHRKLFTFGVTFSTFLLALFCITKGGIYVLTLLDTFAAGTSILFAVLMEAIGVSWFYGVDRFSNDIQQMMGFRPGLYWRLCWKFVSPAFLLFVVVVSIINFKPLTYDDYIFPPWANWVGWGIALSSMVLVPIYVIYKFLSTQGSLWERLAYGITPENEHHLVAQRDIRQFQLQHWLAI
Description: as §1, §2, §3, §4, §5

[3] = target: T1, SERT; assay: hSERT neurotransmitter uptake assay (3H-5-HT); assay type: cell-based; conditions: serotonin reuptake inhibition, HEK-293 hSERT cells, 3H-5-HT (no asterisk); read-out: SERT pIC50 (converted)
Description: (§6) Neurotransmitter uptake assays were used to measure inhibition of ^3H-serotonin (^3H-5-HT), ^3H-norepinephrine (^3H-NE), and ^3H-dopamine (^3H-DA) uptake into cells expressing the respective transporter (hSERT, hNET or hDAT) in order to determine the pIC50 values of test compounds at the transporters.
(§7) HEK-293 derived cell lines stably-transfected with hSERT, hNET, or hDAT, respectively, were grown in DMEM medium supplemented with 10% dialyzed FBS (for hSERT) or FBS (for hNET and hDAT), 100 μg/ml penicillin, 100 μg/ml streptomycin, 2 mM L-glutamine and 250 μg/ml of the aminoglycoside antibiotic G418 (for hSERT and hNET) or 800 ug/ml (for hDAT), in a 5% CO2 humidified incubator at 37° C. When cultures reached 80% confluence, the cells were washed thoroughly in PBS (without Ca^2+ and Mg^2+) and lifted with 5 mM EDTA in PBS. Cells were harvested by centrifugation at 1100 rpm for 5 minutes, washed once by resuspension in PBS, then centrifuged. The supernatant was discarded and the cell pellet resuspended, by gentle trituration, in room temperature Krebs-Ringer bicarbonate buffer containing HEPES (10 mM), CaCl2 (2.2 mM), ascorbic acid (200 μM) and pargyline (200 μM), pH 7.4. The final concentration of cells in the cell suspension was 7.5×10^4 cells/ml, 1.25×10^5 cells/ml, and 5.0×10^4 cells/ml for SERT, NET, and DAT cell lines, respectively.
(§8) Neurotransmitter uptake assays were performed in a 96-well assay plate in a total volume of 400 μl assay buffer (Krebs-Ringer bicarbonate buffer containing HEPES (10 mM), CaCl2 (2.2 mM), ascorbic acid (200 μM) and pargyline (200 μM), pH 7.4) with 1.5×10^4 and 2.5×10^4 cells, for SERT, NET, and DAT, respectively. […] Stock solutions (10 mM in DMSO) of test compound were prepared and serial dilutions prepared using 50 mM Tris-HCl, 120 mM NaCl, 5 mM KCl, pH 7.4, 0.1% BSA, 400 μM ascorbic acid. Test compounds were incubated for 30 minutes at 37° C. with the respective cells, prior to addition of radiolabeled neurotransmitter, ^3H-5-HT (20 nM final concentration), ^3H-NE (50 nM final concentration) or ^3H-DA (100 nM final concentration). Non-specific neurotransmitter uptake was determined in the presence of 2.5 μM duloxetine, 2.5 μM desipramine, or 10 uM GBR-12909 (each in Dilution Buffer) for the hSERT, hNET, or hDAT assays, respectively.
(§9) Following a 10 minute incubation, at 37° C., with radioligand, the cells were harvested by rapid filtration over a 96-well UniFilter GF/B plate, pretreated with 1% BSA, and washed 6 times with 650 μl wash buffer (ice cold PBS). Plates were dried overnight at 37° C., ˜45 μl of MicroScint™-20 (Perkin Elmer) added and incorporated radioactivity quantitated via liquid scintillation spectroscopy Inhibition curves were analyzed using GraphPad Prism Software package (GraphPad Software, Inc., San Diego, Calif.). IC50 values were generated from concentration response curves using the Sigmoidal Dose Response (variable slope) algorithm in Prism GraphPad.

[4] = target: T2, NET; assay: hNET neurotransmitter uptake assay (3H-NE); assay type: cell-based; conditions: norepinephrine reuptake inhibition, HEK-293 hNET cells, 3H-NE (no asterisk); for IC50: read-out: NET pIC50 (converted)
Description: as §6, §7, §8, §9

T1 sequence (P31645 whole entry): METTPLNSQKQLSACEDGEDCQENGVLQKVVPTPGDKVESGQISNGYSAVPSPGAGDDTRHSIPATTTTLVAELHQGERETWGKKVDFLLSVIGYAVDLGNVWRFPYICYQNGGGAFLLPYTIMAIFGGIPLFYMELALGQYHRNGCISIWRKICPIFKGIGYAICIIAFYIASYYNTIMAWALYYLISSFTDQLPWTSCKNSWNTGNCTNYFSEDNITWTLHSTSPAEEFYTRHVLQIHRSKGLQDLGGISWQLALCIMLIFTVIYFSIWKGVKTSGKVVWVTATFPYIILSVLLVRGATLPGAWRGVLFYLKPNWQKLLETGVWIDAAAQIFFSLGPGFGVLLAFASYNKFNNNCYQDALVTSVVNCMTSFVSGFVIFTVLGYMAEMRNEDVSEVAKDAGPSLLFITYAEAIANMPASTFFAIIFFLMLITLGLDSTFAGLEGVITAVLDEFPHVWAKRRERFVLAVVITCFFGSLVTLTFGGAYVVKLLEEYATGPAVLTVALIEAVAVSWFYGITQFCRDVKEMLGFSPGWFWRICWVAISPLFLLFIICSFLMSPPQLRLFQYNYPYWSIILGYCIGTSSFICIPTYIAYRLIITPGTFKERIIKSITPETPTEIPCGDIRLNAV

SMILES | Ki [1] [µM] | Ki [2] [µM] | IC50 [3] [µM] | IC50 [4] [µM] | SERT pKi [1] | NET pKi [2] | NET pIC50 [4]
COCCC(Oc1ccc(Cl)cc1C)C1CCNC1 (single isomer, unassigned) [5 (2nd peak)] |  | ≤ 0.01 | ≤ 0.01 | ≤ 0.01 | ≧8.0 |  | 
COCC(Oc1cccc(Cl)c1C(F)(F)F)C1CCNC1 (stereo not drawn) [Example 4-18, 3-[1-(3-Chloro-2-trifluoromethylphenoxy)-2-methoxyethyl]pyrrolidine] | ≤ 0.01 | ≤ 0.01 | ≤ 0.1 | ≤ 0.01 |  |  | 
COC[C@H](Oc1ccc(Cl)cc1Cl)[C@H]1CCNC1 [Example 3, (S)-3-[(R)-1-(2,4-Dichlorophenoxy)-2-methoxyethyl]pyrrolidine] | ≤ 0.01 | ≤ 0.01 | ≤ 0.01 | ≤ 0.01 |  |  | 
COC[C@H](Oc1cccc(Cl)c1C)[C@H]1CCNC1 [Example 4-16, (S)-3-[(R)-1-(3-Chloro-2-methylphenoxy)-2-methoxyethyl]pyrrolidine] | ≤ 0.01 | ≤ 0.01 | ≤ 0.01 | ≤ 0.01 |  |  | 
COC[C@@H](Oc1ccc(Cl)cc1Cl)[C@H]1CCNC1 [Example 4-23, (S)-3-[(S)-1-(2,4-Dichlorophenoxy)-2-methoxyethyl]pyrrolidine] | ≤ 0.01 | ≤ 0.1 | ≤ 0.01 | ≤ 0.1 |  |  | 
CCOC[C@H](Oc1cccc2ccccc12)[C@H]1CCNC1 [Example 11, (S)-3-[(R)-2-Ethoxy-1-(naphthalen-1-yloxy)ethyl]pyrrolidine] |  |  | ≤ 0.01 | ≤ 0.01 |  |  | 
COCC(Oc1cccc(Cl)c1Cl)C1CCNC1 (stereo not drawn) [Example 4-5, 3-[1-(2,3-Dichlorophenoxy)-2-methoxyethyl]pyrrolidine] | ≤ 0.01 | ≤ 0.01 | ≤ 0.1 | ≤ 0.01 |  |  | 
OC[C@@H](Oc1ccc(Cl)cc1Cl)[C@@H]1CCNC1 (stereo in doubt) [Example 2-1, (R)-2-(2,4-Dichlorophenoxy)-2-(S)-pyrrolidin-3-yl-ethanol] |  |  | ≤ 0.1 | ≤ 0.1 |  |  | 
COCC(Oc1cccc(Cl)c1Cl)C1CCNC1 (stereo not drawn) [Example 4-6, 3-[1-(2,3-Dichlorophenoxy)-2-methoxyethyl]pyrrolidine] |  |  |  |  | ≧8.0 | ≧8.0 | ≧8.0

More lines, now with the values ahead:

Ki [1] [µM] | Ki [2] [µM] | IC50 [3] [µM] | IC50 [4] [µM] | SERT pKi [1] | NET pKi [2] | NET pIC50 [4] | SMILES
≤ 0.01 | ≤ 0.01 | ≤ 0.1 | ≤ 0.01 |  |  |  | FC(F)(F)c1c(Cl)cccc1O[C@H](C1CCOCC1)[C@@H]1CCNC1 [Example 13-20, (R)-3-[(R)-(3-Chloro-2-trifluoromethylphenoxy)(tetrahydropyran-4-yl)-methyl]-pyrrolidine]
≤ 0.01 | ≤ 0.01 | ≤ 0.1 | ≤ 0.01 |  |  |  | Clc1cccc(O[C@H](C2CCOCC2)[C@@H]2CCNC2)c1Cl [Example 13-13, (R)-3-[(R)-(2,3-Dichlorophenoxy)(tetrahydropyran-4-yl)methyl]pyrrolidine]
≤ 0.01 | ≤ 0.01 | ≤ 0.1 | ≤ 0.1 |  |  |  | Clc1cc(Cl)cc(O[C@H](C2CCOCC2)[C@@H]2CCNC2)c1 [Example 13-29, (R)-3-[(R)-(3,5-Dichlorophenoxy)(tetrahydropyran-4-yl)methyl]pyrrolidine]
≤ 0.01 | ≤ 0.01 | ≤ 0.1 | ≤ 0.01 |  |  |  | Clc1ccccc1O[C@@H](C1CCOCC1)[C@@H]1CCNC1 [Example 13-3, (R)-3-[(S)-(2-Chlorophenoxy)(tetrahydropyran-4-yl)methyl]pyrrolidine]
≤ 0.01 | ≤ 0.01 | ≤ 0.1 | ≤ 0.01 |  |  |  | Fc1cccc(O[C@@H](C2CCOCC2)[C@H]2CCNC2)c1Cl [Example 13-14, (S)-3-[(S)-(2-Chloro-3-fluorophenoxy)(tetrahydropyran-4-yl)methyl]pyrrolidine]
≤ 0.1 | ≤ 0.01 | ≤ 0.1 | ≤ 0.01 |  |  |  | Clc1ccc(O[C@@H](C2CCOCC2)[C@H]2CCNC2)c(Cl)c1 [Example 13-22, (S)-3-[(S)-(2,4-Dichlorophenoxy)(tetrahydropyran-4-yl)methyl]pyrrolidine]
≤ 0.01 | ≤ 0.01 | ≤ 0.01 | ≤ 0.01 |  |  |  | Clc1cc(Cl)cc(O[C@@H](C2CCOCC2)[C@@H]2CCNC2)c1 [Example 13-30, (R)-3-[(S)-(3,5-Dichlorophenoxy)(tetrahydropyran-4-yl)methyl]pyrrolidine]
≤ 0.1 | ≤ 0.01 | ≤ 1 | ≤ 0.01 |  |  |  | Clc1ccccc1O[C@@H](C1CCOCC1)[C@H]1CCNC1 [Example 13-1, (S)-3-[(S)-(2-Chlorophenoxy)(tetrahydropyran-4-yl)methyl]pyrrolidine]
